Values of other authors, collected in patent publication US20170027908A1, “Pharmaceutical Composition” (CIPLA Limited, priority 2011, published 2017).

Legend:
[1] = system: airway hyperresponsiveness; details: as compared to fluticasone propionate
[2] = in vivo

C[C@@H]1C[C@H]2[C@@H]3C[C@H](F)C4=CC(=O)C=C[C@]4(C)[C@@]3(F)[C@@H](O)C[C@]2(C)[C@@]1(OC(=O)c1ccco1)C(=O)SCF [fluticasone furoate]
prolonged protection against airway hyperresponsiveness [1]: up to 26 hours | elimination half life [2]: 15.1 h
